Experimental data published in patent publication US20080033005A1, “METHODS FOR THE TREATMENT OF MULTIPLE SCLEROSIS” (AVENTIS PHARMACEUTICALS INC., priority 2004, published 2008).

Legend:
[1] = system: Primary rat oligodendrocyte progenitor cells; test: Oligodendrocyte toxicity assay, progenitor cells (OLP), SIN-1, LDH release; type: cell-based; conditions: compound 10 nm, 1 hour pretreatment; Sin-1 10 mM; LDH after 24 hours; oligodendrocyte progenitors
Experimental: (§1) Primary rat oligodendrocyte progenitor cells were obtained from the cerebra of 2-3 day old postnatal rats (Sprague Dawley). The meninges were removed and tissue was mechanically dissociated. Cells were plated on T75 flasks and fed with DMEM+10% FBS.
(§2) Enriched OLPs were collected by mechanical separation from the astrocytic monolayer and were expanded in serum free media (SFM) supplemented with the mitogens, PDGF-AA (10 ng/ml) and FGF-2 (10 ng/ml).
(§3) Cells were plated in 96-well plates, 10,000 per well. Medium was changed to fresh medium and cells were pretreated with compounds for 1 hour. Toxins were added to give the following final concentrations: • Sin-1 10 mM • Pyrogallol 500 μM • C2 ceramide 100 μM • Camptothecin 10 μM
(§4) After 24 hours, medium was removed and assayed for LDH activity using the Promega cytotox 96 kit (catalog# G1780). Results were calculated as percent protection against toxin-induced toxicity.

mature oligodendrocytes = test: Oligodendrocyte toxicity assay, mature oligodendrocytes (OL), SIN-1, LDH release; type: cell-based, rat; conditions: compound 10 nm, 1 hour pretreatment, Sin-1 10 mM, LDH after 24 hours
Experimental: as §1, §2
To generate mature oligodendrocytes, progenitor cells were switched to SFM supplemented with IGF-1 (10 ng/ml) 24 hours after plating and cells were grown under these conditions for 7 days prior to experimental assays.
as §3, §4

SK-N-SH cells = conditions: U-0126 given with the tested compounds
Experimental: Cells from a human neuroblastoma cell line, SK-N-SH cells, were plated at 50,000 cells/well in Costar Biocoat 96-well poly-D-lysine coated plates in EMEM (Minimum Essential Medium Eagle with Earle's salts) containing penicillin/streptomycin, L-glutamine, sodium pyruvate, non-essential amino acids and sodium bicarbonate. Cells were grown overnight in a 37° C. incubator under 5% CO2. The next day, the medium was removed and replaced with fresh medium. Cells were pretreated with Serms for 1 hour, and SIN-1 (3-morpholinosydnonimine, which produces peroxynitrite) was added to give a final concentration of 2 or 10 mM. After 24 hours, the medium was removed and assayed for LDH activity using the Promega cytotox 96 kit (catalog# G1780). Results were calculated as percent protection against SIN-1 toxicity.

Compound	% Protection (SIN-1*) OLP 10 nm [1]	% Protection (SIN-1*) OL 10 nm (mature oligodendrocytes)	effect of MEK inhibitor on the neuroprotection by the compounds (SK-N-SH cells)
COc1ccc(-c2sc3cc(O)ccc3c2Oc2ccc(OCCN3CCCCC3)cc2)cc1 [Arzoxifen]	1.485%	8.237%	–
N#CC(=C(/N)Sc1ccccc1N)/C(C#N)=C(\N)Sc1ccccc1N [U-0126]	–	–	inhibition of the neuroprotection
